Results as given in patent US11655235B2, “Pyrrolidine and piperidine compounds” (YUHAN CORPORATION, priority 2019, dated 2023).

Columns and labels:
Recombinant human FAP = molecular target: T1, Recombinant human FAP (Homo sapiens, UniProt Q12884); experiment: FAP inhibition, fluorogenic substrate Z-Gly-Pro-AMC; format: biochemical; conditions: for inhibition at 1 µM: read-out: hFAP inhibition % at 1 μM
T1 construct: purchased R&D systems
T1 sequence (Q12884 1-760): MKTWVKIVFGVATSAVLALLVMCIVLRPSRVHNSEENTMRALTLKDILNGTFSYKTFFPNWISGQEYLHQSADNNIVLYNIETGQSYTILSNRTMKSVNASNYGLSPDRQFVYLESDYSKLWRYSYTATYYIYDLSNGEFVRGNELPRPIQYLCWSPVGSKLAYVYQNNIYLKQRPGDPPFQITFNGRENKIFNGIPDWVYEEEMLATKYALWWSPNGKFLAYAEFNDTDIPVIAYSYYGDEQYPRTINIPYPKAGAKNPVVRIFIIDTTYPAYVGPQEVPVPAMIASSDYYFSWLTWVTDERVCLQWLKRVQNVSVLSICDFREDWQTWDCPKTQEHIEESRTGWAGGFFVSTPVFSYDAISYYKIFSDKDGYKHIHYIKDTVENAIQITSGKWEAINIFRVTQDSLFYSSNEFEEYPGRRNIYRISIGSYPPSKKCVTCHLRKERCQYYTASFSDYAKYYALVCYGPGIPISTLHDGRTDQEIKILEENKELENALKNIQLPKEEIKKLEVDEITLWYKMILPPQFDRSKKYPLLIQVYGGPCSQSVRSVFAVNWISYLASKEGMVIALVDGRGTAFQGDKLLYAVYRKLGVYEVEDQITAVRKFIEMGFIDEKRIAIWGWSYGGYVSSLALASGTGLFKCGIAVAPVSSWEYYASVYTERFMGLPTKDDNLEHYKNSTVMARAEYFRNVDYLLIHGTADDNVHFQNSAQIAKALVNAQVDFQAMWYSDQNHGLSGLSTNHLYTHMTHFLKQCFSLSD
Procedure, shortened: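 Recombinant human FAP, 10 ng per reaction, in 50 mM Tris pH 7.5 with 1 M NaCl and 1 mg/ml BSA at 25° C; substrate Z-Gly-Pro-AMC, ≤0.1% DMSO. AMC fluorescence read at ex 380/em 460 nm; % signal-rate decrease vs no-inhibitor control, 8-point curves fitted to a four-parameter logistic for IC50.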

DPP4 = DPP4 (Homo sapiens, UniProt P27487); experiment: DPP4 inhibition, fluorogenic substrate H-Gly-Pro-AMC; format: biochemical; design: purchased R&D Systems; conditions: for inhibition at 1 µM: read-out: hDPP4 inhibition % at 1 μM
Chain of DPP4 (P27487 whole entry): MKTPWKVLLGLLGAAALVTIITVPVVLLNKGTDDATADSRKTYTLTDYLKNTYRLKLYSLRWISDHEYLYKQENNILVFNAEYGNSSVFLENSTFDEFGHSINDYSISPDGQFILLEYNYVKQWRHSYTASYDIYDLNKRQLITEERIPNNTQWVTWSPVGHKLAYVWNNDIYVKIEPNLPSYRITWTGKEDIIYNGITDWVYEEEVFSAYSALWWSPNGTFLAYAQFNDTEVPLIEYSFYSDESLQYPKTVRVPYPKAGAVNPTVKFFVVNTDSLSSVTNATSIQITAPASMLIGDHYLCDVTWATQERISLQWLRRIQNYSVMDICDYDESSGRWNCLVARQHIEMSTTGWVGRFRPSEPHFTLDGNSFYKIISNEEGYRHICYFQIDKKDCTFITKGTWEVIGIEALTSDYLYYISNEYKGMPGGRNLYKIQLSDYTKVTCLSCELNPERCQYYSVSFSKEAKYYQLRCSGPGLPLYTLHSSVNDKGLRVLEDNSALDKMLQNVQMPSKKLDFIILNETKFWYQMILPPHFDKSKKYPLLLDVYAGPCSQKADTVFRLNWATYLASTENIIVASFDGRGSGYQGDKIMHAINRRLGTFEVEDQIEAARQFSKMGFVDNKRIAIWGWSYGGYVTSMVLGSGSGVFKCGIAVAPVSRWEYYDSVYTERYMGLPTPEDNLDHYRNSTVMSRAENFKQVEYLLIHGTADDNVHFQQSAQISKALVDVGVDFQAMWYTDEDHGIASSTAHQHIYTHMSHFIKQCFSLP

[1] = 25° C., Z-Gly-Pro-AMC substrate
[2] = recombinant human FAP, substrate Z-Gly-Pro-AMC

Row | SMILES | IC50 (Recombinant human FAP; [2]) [nM] | IC50 (DPP4; recombinant human DPP4) [nM] | other results
1 | N#C[C@@H]1CCCN1C(=O)CN1CC[C@H](Oc2cc(OCc3ccccc3)ccn2)C1 [Example 93, (S)-1-(2-((S)-3-((4-(benzyloxy)pyridin-2-yl)oxy)pyrrolidin-1-yl)acetyl)pyrrolidine-2-carbonitrile] |  |  | IC50 (Recombinant human FAP; [1]): 69.6 nM; inhibition at 1 µM (DPP4): 11.6%
2 | N#C[C@@H]1CCCN1C(=O)CN1CC[C@H](Oc2ccnc3cc(C(F)(F)F)ccc23)C1 [Example 94, (S)-1-(2-((S)-3-((7-(trifluoromethyl)quinolin-4-yl)oxy)pyrrolidin-1-yl)acetyl)pyrrolidine-2-carbonitrile] |  |  | IC50 (Recombinant human FAP; [1]): 63.3 nM; inhibition at 1 µM (DPP4): 6.9%
3 | N#C[C@@H]1CCCN1C(=O)CN1CC[C@H](Oc2cccc3cc4ccccc4nc23)C1 [Example 96, (S)-1-(2-((S)-3-(acridin-4-yloxy)pyrrolidin-1-yl)acetyl)pyrrolidine-2-carbonitrile] |  |  | IC50 (Recombinant human FAP; [1]): 270 nM; inhibition at 1 µM (DPP4): 11.5%
4 | N#C[C@@H]1CCCN1C(=O)CN1CC[C@H](Oc2ccccc2-c2nc3ccccc3o2)C1 [Example 97, (S)-1-(2-((S)-3-(2-(benzo[d]oxazol-2-yl)phenoxy)pyrrolidin-1-yl)acetyl)pyrrolidine-2-carbonitrile] |  |  | inhibition at 1 µM (Recombinant human FAP): 36.3%; inhibition at 1 µM (DPP4): 8.3%
5 | CC(=O)N1CCN(c2ccc(O[C@H]3CCN(CC(=O)N4CCC[C@H]4C#N)C3)cc2)CC1 [Example 98, (S)-1-(2-((S)-3-(4-(4-acetylpiperazin-1-yl)phenoxy)pyrrolidin-1-yl)acetyl)pyrrolidine-2-carbonitrile] |  |  | inhibition at 1 µM (Recombinant human FAP): 63.2%; inhibition at 1 µM (DPP4): 9.1%
6 | N#C[C@@H]1CCCN1C(=O)CN1CC[C@H](Oc2ccccc2C(=O)Nc2ccccc2)C1 [Example 99, 2-(((S)-1-(2-((S)-2-cyanopyrrolidin-1-yl)-2-oxoethyl)pyrrolidin-3-yl)oxy)-N-phenylbenzamide] |  |  | inhibition at 1 µM (Recombinant human FAP): 18.2%; inhibition at 1 µM (DPP4): 10.9%
7 | N#C[C@@H]1CCCN1C(=O)CN1CC[C@H](Oc2cc(-c3ccc(Br)cc3)no2)C1 [Example 102, (S)-1-(2-((S)-3-((3-(4-bromophenyl)isoxazol-5-yl)oxy)pyrrolidin-1-yl)acetyl)pyrrolidine-2-carbonitrile] |  |  | inhibition at 1 µM (Recombinant human FAP): 52.4%; inhibition at 1 µM (DPP4): 6.2%
8 | N#C[C@@H]1C[C@@H]2C[C@@H]2N1C(=O)CN1CCC(Nc2ccnc3ccccc23)CC1 [Example 112, (1S,3S,5S)-2-(2-(4-(quinolin-4-ylamino)piperidin-1-yl)acetyl)-2-azabicyclo[3.1.0]hexane-3-carbonitrile] |  |  | IC50 (Recombinant human FAP; [1]): 18.8 nM; hDPP4 inhibition % at 1 μM (DPP4): No inhibition**
9 | N#C[C@@H]1CCCN1C(=O)CN1CCC(Nc2cncc3ccoc23)CC1 [Example 116, (S)-1-(2-(4-(furo[3,2-c]pyridin-7-ylamino)piperidin-1-yl)acetyl)pyrrolidine-2-carbonitrile] |  |  | inhibition at 1 µM (Recombinant human FAP): 82.4%; hDPP4 inhibition % at 1 μM (DPP4): No inhibition**
10 | N#C[C@@H]1CCCN1C(=O)CN1CCC(Oc2cnc3ccccc3c2)CC1 [Example 117, (S)-1-(2-(4-(quinolin-3-yloxy)piperidin-1-yl)acetyl)pyrrolidine-2-carbonitrile] |  |  | IC50 (Recombinant human FAP; [1]): 22.9 nM; hDPP4 inhibition % at 1 μM (DPP4): No inhibition**
11 | N#C[C@@H]1CCCN1C(=O)CN1CCC(Oc2ccc3ncccc3c2)CC1 [Example 120, (S)-1-(2-(4-(quinolin-6-yloxy)piperidin-1-yl)acetyl)pyrrolidine-2-carbonitrile] |  |  | IC50 (Recombinant human FAP; [1]): 11.8 nM; hDPP4 inhibition % at 1 μM (DPP4): No inhibition**
12 | Cc1ccc2ncccc2c1NC1CCN(CC(=O)N2C[C@@H](F)C[C@H]2C#N)CC1 [Example 134, (2S,4S)-4-fluoro-1-(2-(4-((6-methylquinolin-5-yl)amino)piperidin-1-yl)acetyl)pyrrolidine-2-carbonitrile] |  |  | IC50 (Recombinant human FAP; [1]): 343 nM; IC50 (DPP4; 25° C., H-Gly-Pro-AMC substrate): 8010 nM
13 | COc1ccc2ncccc2c1N[C@H]1CCN(CC(=O)N2CCC[C@H]2C#N)C1 [Example 240, (2S)-1-[2-[(3S)-3-[(6-methoxy-5-quinolyl)amino]pyrrolidin-1-yl]acetyl]pyrrolidine-2-carbonitrile] | 20 | > 10000 | 
14 | CN(c1ccnc2ccccc12)C1CCN(CC(=O)N2CCC[C@H]2C#N)CC1 [Example 308, (2S)-1-[2-[4-[methyl(4-quinolyl)amino]-1-piperidyl]acetyl]pyrrolidine-2-carbonitrile] | 96.8 | > 10000 | 
15 | CN(c1cncc2ccoc12)C1CCN(CC(=O)N2CCC[C@H]2C#N)CC1 [Example 312, (2S)-1-[2-[4-[furo[3,2-c]pyridin-7-yl(methyl)amino]-1-piperidyl]acetyl]pyrrolidine-2-carbonitrile] | 31.8 | > 10000 | 
16 | CN(c1cccc2ccncc12)C1CCN(CC(=O)N2C[C@@H](F)C[C@H]2C#N)CC1 [Example 320, (2S,4S)-4-fluoro-1-[2-[4-[8-isoquinolyl(methyl)amino]-1-piperidyl]acetyl]pyrrolidine-2-carbonitrile] | 46.2 | 410 | 
17 | N#C[C@@H]1C[C@H](F)CN1C(=O)CN1CCC(Nc2ccc(OCc3ccccc3)c3ncccc23)CC1 [Example 332, (2S,4S)-1-[2-[4-[(8-benzyloxy-5-quinolyl)amino]-1-piperidyl]acetyl]-4-fluoro-pyrrolidine-2-carbonitrile] | 5.5 | 6200 | 
18 | N#C[C@@H]1C[C@H](F)CN1C(=O)CN1CCC(Nc2cccc3ncc(Cl)cc23)CC1 [Example 333, (2S,4S)-1-[2-[4-[(3-chloro-5-quinolyl)amino]-1-piperidyl]acetyl]-4-fluoro-pyrrolidine-2-carbonitrile] | 2.6 | 7540 | 
19 | N#C[C@@H]1C[C@H](F)CN1C(=O)CN1CCC(Nc2ccc3cnccc3c2)CC1 [Example 341, (2S,4S)-4-fluoro-1-[2-[4-(6-isoquinolylamino)-1-piperidyl]acetyl]pyrrolidine-2-carbonitrile] | 22.7 | > 10000 | 
20 | N#C[C@@H]1C[C@H](F)CN1C(=O)CN1CCC(Oc2cccc3ncc(F)cc23)CC1 [Example 416, (2S,4S)-4-fluoro-1-[2-[4-[(3-fluoro-5-quinolyl)oxy]-1-piperidyl]acetyl]pyrrolidine-2-carbonitrile] | 2.3 | 6840 | 
21 | N#C[C@@H]1C[C@H](F)CN1C(=O)CN1CCC(Oc2ccc(Cl)c3ncccc23)CC1 [Example 418, (2S,4S)-1-[2-[4-[(8-chloro-5-quinolyl)oxy]-1-piperidyl]acetyl]-4-fluoro-pyrrolidine-2-carbonitrile] | 3.7 | 4670 | 

The next lines start with results.

Row | IC50 (Recombinant human FAP; [2]) [nM] | IC50 (DPP4; recombinant human DPP4) [nM] | SMILES | other results
22 | 47.1 | > 10000 | CN(c1ccc2ccccc2n1)C1CCN(CC(=O)N2CCC[C@H]2C#N)CC1 [Example 307, (2S)-1-[2-[4-[methyl(2-quinolyl)amino]-1-piperidyl]acetyl]pyrrolidine-2-carbonitrile] | 
23 | 68.3 | > 10000 | CN(c1cccc2ncccc12)C1CCN(CC(=O)N2CCC[C@H]2C#N)CC1 [Example 309, (2S)-1-[2-[4-[methyl(5-quinolyl)amino]-1-piperidyl]acetyl]pyrrolidine-2-carbonitrile] | 
24 | 18.2 | > 10000 | CN(c1cccc2cnccc12)C1CCN(CC(=O)N2C[C@@H](F)C[C@H]2C#N)CC1 [Example 318, (2S,4S)-4-fluoro-1-[2-[4-[5-isoquinolyl(methyl)amino]-1-piperidyl]acetyl]pyrrolidine-2-carbonitrile] | 
25 | 5.9 | 7330 | N#Cc1ccc2c(NC3CCN(CC(=O)N4C[C@@H](F)C[C@H]4C#N)CC3)cccc2n1 [Example 335, 5-[[1-[2-oxo-2-[(2S,4S)-2-cyano-4-fluoro-pyrrolidin-1-yl]ethyl]-4-piperidyl]amino]quinoline-2-carbonitrile] | 
